Data: US10118947B2, “Modulation of structured polypeptide specificity” (BICYCLE THERAPEUTICS LIMITED, priority 2013, dated 2018)
Numbered stars: 1 amine (or outer) side, 2 acyl side, 3 side chain; on linkers, the order of the positions; unused ones are H or OH. Bridge positions count the residues as written; N and C are the ends. Square brackets hold non-standard residues; d marks the D form. Peptide text beside a SMILES is read from it. Gly(N-CH2CH2-imidazol-4-yl) = O=C(O)CNCCc1c[nH]cn1; TBMB = c1c(C[*:1])cc(C[*:3])cc1C[*:2]; Abu = CC[C@H](N)C(=O)O

system: not listed separately; test: Plasma stability profiling Method #1 (MALDI-TOF, 35% plasma), rat plasma; type: in vitro ADME; details: Table 14; method #1
Protocol: A rapid plasma stability profiling assay was developed that employed mass spectrometric detection (MALDI-TOF, Voyager DE, Applied Biosystems) of the parent mass, until the time when the parent peptide mass was no longer observable. Specifically, 200 uM of peptide was incubated in the presence of 35% rat or human plasma (Sera labs, using citrate as anticoagulant) at 37 deg C., which was supplemented with 1×PBS (derived from a 10×PBS Stock, Sigma). At various time points (i.e. t=0, 3, 24 hrs, henceafter daily up to 10 days), 2 uL of sample was added to 18 uL of 30 mM ammonium bicarbonate in a 1:1 mixture of acetonitrile:H2O. Samples were frozen at −80 deg C. until the time of analysis. For mass spectrometric analysis that determines the approximate detection window of the peptide, the acetonitrile:H2O-diluted sample of a given time point was spotted directly (0.7 uL) onto the MALDI plate. Matrix (alpha-cyanocinnamic acid, Sigma, prepared as a saturated solution in 1:1 acetonitrile:water containing 0.1% trifluoroacetic acid) was layered over the sample (1 uL). At a similar laser intensity setting on the MALDI TOF, the time could then be determined until parent peptide was no longer detectable. It should be noted that this is a qualitative assay serves to detect relative changes in plasma stability.

Row | Compound | Observable in rat plasma, for days [days]
1 | CC[C@@H]1NC(=O)[C@@H]2CCCN2C(=O)[C@H](Cc2c[nH]c3ccccc23)NC(=O)[C@H](CO)NC(=O)[C@@H](NC(C)=O)CSCc2cc3cc(c2)CSC[C@H](NC(=O)[C@H](CCCNC(=N)N)NC1=O)C(=O)N[C@@H](CC(C)C)C(=O)N[C@@H](Cc1c[nH]cn1)C(=O)N[C@@H](CCC(N)=O)C(=O)N[C@@H](CC(=O)O)C(=O)N[C@@H](CC(C)C)C(=O)N[C@H](C(N)=O)CSC3 [Ac-(06-34-18) Aba4] (Ac-CSWP[Abu]RCLHQDLC-NH2; linker 1-7-13 via TBMB) | 2

same assay, conditions: Table 21; method #1

Row | Compound | Observable in rat plasma, for days [days]
2 | CC(=O)N[C@H]1CSCc2cc3cc(c2)CSC[C@H](NC(=O)[C@H](CCCNC(=N)N)NC(=O)[C@H](C)NC(=O)[C@@H]2CCCN2C(=O)[C@H](Cc2ccccc2)NC(=O)[C@H](CO)NC1=O)C(=O)N[C@@H](CC(C)C)C(=O)N[C@@H](Cc1c[nH]cn1)C(=O)N[C@@H](CCC(N)=O)C(=O)N[C@@H](CC(=O)O)C(=O)N[C@@H](CC(C)C)C(=O)N[C@H](C(N)=O)CSC3 [Ac-(06-34-18) FPAR] (Ac-CSFPARCLHQDLC-NH2; linker 1-7-13 via TBMB) | 2

system: not listed separately; test: Plasma stability / fragment profiling Method #2 (MALDI-TOF, 95% plasma), human plasma; type: in vitro ADME; details: running text and figure legends
Protocol: To obtain stability data more rapidly, peptides were also assessed in 95% plasma. Here, PBS was omitted, and a 1 mM peptide stock (in DMSO) was directly diluted into plasma (i.e. 2.5 uL stock into 47.5 uL plasma), giving a final concentration of 50 uM. 5 uL samples were taken at appropriate time points and frozen at −80 deg C. For analysis, the samples were defrosted, mixed with 15 uL of 1:1 acetonitrile:methanol, and centrifuged at 13 k for 5 min. 5 uL of the peptide-containing supernatant was aspirated and mixed with 30 mM ammonium bicarbonate in a 1:1 mixture of acetonitrile:H2O. 1 uL of this was then spotted on the MALDI plate and analysed as described above. As above, it should be noted that this is a qualitative assay serves to detect relative changes in plasma stability.
Ac-06-34-18(TMB)-NH2 Phe2 Tyr4 (referred to as wild type peptide) was subsequently subjected to human plasma, and analysed for fragments to appear over time. This was compared to the degradation profile observed in human plasma using the NMe-Arg5 derivative of 06-34-18 (FIGS. 18a and 18b). Fragmentation was determined according to Method #2.

Row | Compound | degradation / fragments in human plasma (in words)
3 | CC(=O)N[C@H]1CSCc2cc3cc(c2)CSC[C@H](NC(=O)[C@H](CCCNC(=N)N)NC(=O)[C@H](Cc2ccc(O)cc2)NC(=O)[C@@H]2CCCN2C(=O)[C@H](Cc2ccccc2)NC(=O)[C@H](CO)NC1=O)C(=O)N[C@@H](CC(C)C)C(=O)N(CCc1c[nH]cn1)CC(=O)N[C@@H](CCC(N)=O)C(=O)N[C@@H](CC(=O)O)C(=O)N[C@@H](CC(C)C)C(=O)N[C@H](C(N)=O)CSC3 [Ac-(06-34-18) Phe2 Tyr4 N-His] (Ac-CSFPYRCL[Gly(N-CH2CH2-imidazol-4-yl)]QDLC-NH2; linker 1-7-13 via TBMB) | significantly enhanced stability in loop2

target: T1, human plasma Kallikrein (Homo sapiens, UniProt P03952); test: Functional enzyme inhibition assay with fluorogenic substrate Z-PheArg-AMC, human plasma Kallikrein; type: biochemical; details: not given
T1 construct: purchased Stratech, UK
T1 sequence (P03952 20-638): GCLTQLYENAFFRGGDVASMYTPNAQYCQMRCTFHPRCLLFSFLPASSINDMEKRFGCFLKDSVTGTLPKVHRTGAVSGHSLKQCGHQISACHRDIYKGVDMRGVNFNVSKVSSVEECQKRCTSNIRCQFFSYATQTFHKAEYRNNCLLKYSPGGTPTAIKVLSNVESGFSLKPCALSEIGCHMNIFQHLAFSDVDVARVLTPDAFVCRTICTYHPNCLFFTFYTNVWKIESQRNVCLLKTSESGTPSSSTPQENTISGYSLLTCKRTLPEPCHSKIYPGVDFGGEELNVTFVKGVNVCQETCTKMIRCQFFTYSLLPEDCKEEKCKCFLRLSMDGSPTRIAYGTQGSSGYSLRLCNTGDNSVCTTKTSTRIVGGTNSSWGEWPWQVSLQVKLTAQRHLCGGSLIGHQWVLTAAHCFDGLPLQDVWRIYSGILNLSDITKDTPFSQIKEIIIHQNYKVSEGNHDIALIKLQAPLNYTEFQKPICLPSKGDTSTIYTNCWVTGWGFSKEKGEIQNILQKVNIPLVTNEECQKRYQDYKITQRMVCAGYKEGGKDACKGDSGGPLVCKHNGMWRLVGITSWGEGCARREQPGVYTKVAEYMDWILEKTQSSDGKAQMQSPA
How it was run: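 Human plasma kallikrein at 26.5 pM was preincubated 15 minutes with test peptide in Tris/NaCl/MgCl2/CaCl2/BSA buffer pH7.4 at 25° C, then Z-PheArg-AMC added to 100 μM final in 4% DMSO.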

Row | Compound | reduction in potency/affinity compared to wildtype [fold]
4 | CC(=O)N[C@H]1CSCc2cc3cc(c2)CSC[C@H](NC(=O)[C@H](CCCNC(=N)N)NC(=O)[C@H](C)NC(=O)[C@@H]2CCCN2C(=O)[C@H](Cc2ccccc2)NC(=O)[C@H](CO)NC1=O)C(=O)N[C@@H](CC(C)C)C(=O)N[C@@H](Cc1c[nH]cn1)C(=O)N[C@@H](CCC(N)=O)C(=O)N[C@@H](CC(=O)O)C(=O)N[C@@H](CC(C)C)C(=O)N[C@H](C(N)=O)CSC3 [Ac-(06-34-18) FPAR] (Ac-CSFPARCLHQDLC-NH2; linker 1-7-13 via TBMB) | 40

target: T1, human plasma Kallikrein; test: Phage selections against human plasma Kallikrein (abundance in selection output); type: binding; details: Table 17; relative abundance in the total selection outputs
Protocol: Glycerol stocks of phage libraries were diluted to OD600=0.1 in 500 ml 2YT/chloramphenicol (30 μg/ml) cultures and phage were produced at 30° C. over night (15-16 hrs). Phage were purified and chemically modified as described in Heinis, et al., Nat Chem Biol 2009, 5 (7), 502-7 Biotinylated hPK (3 μg) (IHPKA, from human plasma, Innovative Research, Novi, Mich., USA) was incubated with 50 μl pre-washed magnetic streptavidin beads (Dynal, M-280 from Invitrogen, Paisley, UK) for 10 minutes at RT. Beads were washed 3 times prior to blocking with 0.5 ml washing buffer (10 mM Tris-Cl, pH 7.4, 150 mM NaCl, 10 mM MgCl2, 1 mM CaCl2) containing 1% BSA and 0.1% Tween 20 for 30 minutes at RT with rotation. […] Blocked beads were then mixed with the blocked chemically modified phage and incubated for 30 minutes on a rotating wheel at
RT. Beads were washed 8 times with washing buffer containing 0.1% Tween 20 and twice with washing buffer before incubation with 100 μl of 50 mM glycine, pH 2.2 for 5 minutes. Eluted phage were transferred to 50 μl of 1 M Tris-Cl, pH 8 for neutralization, incubated with 30 ml TG1 cells at OD600=0.4 for 90 minutes at 37° C. and the cells were plated on large 2YT/chloramphenicol plates. One or two additional rounds of panning were performed using the same procedures. In the second round of selection, neutravidin-coated magnetic beads were used to prevent the enrichment of streptavidin-specific peptides. The neutravidin beads were prepared by reacting 0.8 mg neutravidin (Pierce, Rockford, Ill., USA) with 0.5 ml tosyl-activated magnetic beads (Dynal, M-280 from Invitrogen, Paisley, UK) according to the supplier's instructions.
The WPAR (SEQ ID No. 19) motif identified from Example 1 was analysed in the context of the 06-34-03 peptide, in order to identify alternatives or improvements to the WPAR motif. A library was constructed where positions 1, 6, 7, 8, 9 &10 of 06-34-03 were fixed and positions 2, 3, 4 & 5 were randomised (see ‘Randomisation of peptide domains—Library construction’ in Methods above). Selections against human plasma Kallikrein were performed at a variety of stringencies (see Phage selections' in Methods above). All output sequences were identified and analysed for target binding (see ‘Randomisation of peptide domains—Assay of binding of individual clones’ in Methods above). Table 17 lists each unique sequence, its relative abundance in the selection output (frequency), and a rank number according to target binding strength.

Row | Compound | FREQUENCY
5 | CSFSYKCTHQDLC | 1
6 | CSLPFKCTHQDLC | 1
